Data on eight molecules can be found in EP4324928A1, “SYNTHETIC REAGENTS FOR ENZYME-CATALYSED ALKYLATION” (priority 2022, dated 2024).

One data set has as its target T1, AtHMTV140A (Arabidopsis thaliana, UniProt Q0WP12, V140A).
T1 construct: made in house; host or cells: E. coli Δmtn (DE3)
T1 sequence (Q0WP12 1-227 V140A): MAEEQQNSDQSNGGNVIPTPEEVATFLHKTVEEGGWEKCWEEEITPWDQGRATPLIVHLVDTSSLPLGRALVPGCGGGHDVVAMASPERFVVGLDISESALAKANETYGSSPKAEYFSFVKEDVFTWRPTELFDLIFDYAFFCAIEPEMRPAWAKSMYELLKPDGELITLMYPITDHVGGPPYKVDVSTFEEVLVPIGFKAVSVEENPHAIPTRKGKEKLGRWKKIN
As to the kind of experiment: Time-dependent methylation of SAH with methyl iodide, initial rates, mutant versus AtHMT (HPLC). The conditions noted are these: 1 µM enzyme, 1 mM SAH, 2 mM Mel, 50 mM sodium phosphate buffer pH 8.0, 25 °C. The class given is biochemical.

For data set [1] the following is noted: rats; cited from earlier work.
The next data set deals with T2, AtHMT Val140 to Thr (Arabidopsis thaliana, UniProt Q0WP12, V140T).
T2 sequence (Q0WP12 1-227 V140T): T1 sequence (Q0WP12 1-227 V140A) with A140T
The conditions noted are these: previous study; cited from earlier work.

A short description of data set [2]: Stability test of methyl donors in phosphate buffer (1H NMR, hydrolysis and phosphorolysis). The conditions noted are these: pH 8.4. As for the experimental part:
These solutions were monitored by ^1H NMR at time points between 0.5 to 24 hours to quantify the products of hydrolysis and phosphorolysis. The ^1H NMR signal peaks of all methyl species were integrated and the ratio of them was calculated. The percentage of methyl donor was plotted against time and the graph was fitted with exponential decay model to calculate the half-life of the methyl donor.

The test system of another data set is TPMT uma. As to the kind of experiment: TPMT-catalyzed SAH methylation using dimethyl sulfite as methyl group donor (HPLC). The class given is biochemical, Ustilago maydis. The settings on record: after 20-hour incubation. An excerpt: (§1) Dimethyl sulfite (Me2SO3) is used as an additive in some polymers to prevent oxidation. It is much less toxic than dimethyl sulfate and can be considered as a potential methyl group donor. Herein, the inventors performed SAH methylation with dimethyl sulfite (Figure 9).

In the next data set the test system is TBU. Described as above. The conditions noted are these: after 20-hour incubation. The class given is biochemical.
Description: as §1

The subject of a further data set is TPMT acl. Described as above. The class given is biochemical, Aspergillus clavatus. The conditions noted are these: after 20-hour incubation.
Description: as §1

For a further data set, the system named is monoamine oxidase. The conditions noted are these: background statement; cited from earlier work.
In the next data set the target is T3, ath_V140A (Arabidopsis thaliana, UniProt Q0WP12, V140A).
T3 construct: made in house; host or cells: E. coli Δmtn (DE3)
T3 sequence (Q0WP12 1-227 V140A): T1 sequence (Q0WP12 1-227 V140A)
Put plainly: TPMT-catalyzed SAH alkylation using ethylene sulfate as alkyl group donor (HPLC). The class given is biochemical. The settings on record: new HPLC peak not identified as the desired product. From the text: (§2) Ethylene sulfate (C2H4SO4) is a two carbon-unit cyclic sulfate. The inventors also used ethylene sulfate to perform SAH alkylation (Figure 7).

The next data set deals with TPMT CAK. The description is as above. The class given is biochemical. The conditions noted are these: new HPLC peak not identified as the desired product.
Description: as §2

The next data set has as its system TPMT kal. The description is as above. The class given is biochemical, Kordia algicida.
Description: as §2

The nature of another data set: physchem. The class given is physicochemical. The conditions noted are these: buffer, pH 8. As for the experimental part: Ethylene sulfate (C2H4SO4) is a two carbon-unit cyclic sulfate. The inventors also used ethylene sulfate to perform SAH alkylation (Figure 7). A new peak with retention time at 15.7 minutes could be detected by HPLC in the reactions with about half number of TPMTs, although the new peak has not been identified as the desired product. If the new peak is the target product, especially for TPMT kal, 37% of SAH was converted to SAM analog after 4-hour incubation. For TPMT CAK and ath_V140A, they also got over 20% yield of SAM analog. In my opinion, the inactivation of TPMT during the reaction was not the reason of relatively low yield of SAM analog. […] During the reaction, most of ethylene sulfate hydrolyzed so that there was not enough ethylene sulfate to alkylate SAH.

For a further data set, the system named is nba. Put plainly: TPMT panel screen: SAM production from SAH with methyl donor (HPLC). In kind it is biochemical, Nitrospinae bacterium. The settings on record: 2 mM DMSa, 1 mM SAH, 10 µM TPMT, 50 mM phosphate buffer pH 8.0, 25°C; barely exceeds uncatalyzed background. From the text:
(§3) The inventors are not aware of any reports on SAM-dependent methyltransferases that transfer methyl groups from or to sulfates or sulfonates.^[18] […] To test this idea, the inventors assayed a panel of 13 distantly related TPMT homologs for the ability to produce SAM from SAH using DMSa, methyl methanesulfonate (MMSa), methyl toluenesulfonate (MeOTs) or methyl 4-nitrobenzenesulfonate (MeONs) as methyl donor. The proteins were produced in E. coli and purified following standard procedures . The activity of the enzymes was assayed in reactions containing 1 mM SAH, 50 mM phosphate buffer pH 8.0 and 2 mM of either methyl donor. The concentration of SAM after different incubation times (0.5- 24 h) was quantified by HPLC. […] In a nutshell, enzymes that have evolved to catalyze specific physiological reactions may have acquired - by chance - considerable activities for reactions they were never optimized for, while others - from the same enzyme family and with the same physiological function - may have not.

The test system of another data set is dba. The data set is described as above. The class given is biochemical, Dehalococcoidia bacterium. The settings on record: 2 mM DMSa, 1 mM SAH, 10 µM TPMT, 50 mM phosphate buffer pH 8.0, 25°C; barely exceeds uncatalyzed background.
Description: as §3

In another data set the test system is dsq. The data set is described as above. The class given is biochemical, Dichomitus squalens. The settings on record: 2 mM DMSa, 1 mM SAH, 10 µM TPMT, 50 mM phosphate buffer pH 8.0, 25°C; complete conversion within 0.5 h.
Description: as §3

The next data set deals with mac. The data set is described as above. The class given is biochemical, Methanosarcina Acetivorans. The settings on record: 2 mM DMSa, 1 mM SAH, 10 µM TPMT, 50 mM phosphate buffer pH 8.0, 25°C; barely exceeds uncatalyzed background.
Description: as §3

In the next data set the test system is bra. Described as above. The conditions noted are these: 2 mM DMSa, 1 mM SAH, 10 µM TPMT, 50 mM phosphate buffer pH 8.0, 25°C; barely exceeds uncatalyzed background. The class given is biochemical, Brassica rapa chinensis.
Description: as §3

The subject of the next data set is BxHMT. As to the kind of experiment: Time-dependent methylation of SAH by HMT using dimethyl sulfate with or without sodium iodide (HPLC). In kind it is biochemical, Paraburkholderia xenovorans. The settings on record: 1 mM SAH, 2 mM DMSa, 0.1, 1.0 or 10 mM Nal (same efficiency without Nal), 50 mM phosphate buffer pH 8, within two hours.
The subject of a further data set is msm. As to the kind of experiment: TPMT panel screen: SAM production from SAH with methyl donor (HPLC). The settings on record: 2 mM DMSa, 1 mM SAH, 10 µM TPMT, 50 mM phosphate buffer pH 8.0, 25°C; barely exceeds uncatalyzed background. The class given is biochemical, Mycolicibacterium smegmatis.
Description: as §3

For the next data set, the system named is acl. Described as above. The class given is biochemical, Aspergillus clavatus. The settings on record: 2 mM DMSa, 1 mM SAH, 10 µM TPMT, 50 mM phosphate buffer pH 8.0, 25°C; complete conversion within 0.5 h.
Description: as §3

Another data set concerns the target T4, AtHMT (Arabidopsis thaliana, UniProt Q0WP12).
T4 construct: made in house; host or cells: E. coli Δmtn (DE3)
T4 sequence (Q0WP12 1-227): T1 sequence (Q0WP12 1-227 V140A) with A140V
As to the kind of experiment: Time-dependent methylation of SAH by HMT using dimethyl sulfate with or without sodium iodide (HPLC). The class given is biochemical. The conditions noted are these: 1 mM SAH, 2 mM DMSa; efficient SAM production required 10 mM Nal.

A further data set has as its target T5, bma (Batis maritima, UniProt Q9ZSZ7).
T5 construct: Leu-Glu-His6 (C); made in house; host or cells: E. coli Δmtn (DE3)
T5 sequence (Q9ZSZ7 1-230): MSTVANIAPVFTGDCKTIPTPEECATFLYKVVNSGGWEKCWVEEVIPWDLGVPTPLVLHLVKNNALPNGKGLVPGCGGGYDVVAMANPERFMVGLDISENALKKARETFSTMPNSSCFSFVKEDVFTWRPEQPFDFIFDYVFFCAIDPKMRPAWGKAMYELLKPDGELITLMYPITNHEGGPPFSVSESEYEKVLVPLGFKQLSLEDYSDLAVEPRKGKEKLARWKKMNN
As to the kind of experiment: TPMT panel screen: SAM production from SAH with methyl donor (HPLC). The class given is biochemical. The settings on record: 2 mM DMSa, 1 mM SAH, 10 µM TPMT, 50 mM phosphate buffer pH 8.0, 25°C; barely exceeds uncatalyzed background.
Description: as §3

The structures appear in SMILES notation. Changes are numbered by the printed parent chain. Counter-ions that a name gives are not always drawn. Where only a bound is given, the exact number is not on record here.

Description for BxHMT: The given values are averages of three independent measurements. The associated error is less than 30 % of the average value. […] In addition, the reactions contained 50 mM sodium phosphate buffer (pH 8.0) and were incubated at 25 °C. The concentration of SAM was determined by HPLC. A) with 10 µM BxHMT; B) with 10 µM AtHMT. […] The concentration of SAM was determined by HPLC; B) Initial rates of these reactions were estimated from the slopes of linear-fit curves of the points at 1, 2 and 4 minutes.

Consider `CI` [Mel, methyl iodide], for which the “activity for Mel diminished (Val140 to Ala versus AtHMT)” value at AtHMTV140A was found to be 7 fold. In [1], the LD50 was 76 mg/kg. The “catalytic efficiency for Mel reduced (Val140 to Thr)” value on AtHMT Val140 to Thr was 6 fold.

Turning to `COS(=O)(=O)c1ccc(C)cc1` [MeOTs, methyl 4-toluenesulfonate], the half-life in [2] (buffer) is 26 ± 1 h; in [2], 21 ± 3 h.

For the molecule `COS(=O)OC` [dimethyl sulfite, Dimethyl sulfite], the “yield of SAM” value in the data set on TPMT uma came out at 8%; with TBU it was 7%; with TPMT acl it was 14%.

Take `C[C@H](NCc1ccc(OCc2cccc(F)c2)cc1)C(N)=O` [safinamide]: in the data set with monoamine oxidase, the “increased potency by addition of a single methyl group” value was 20 fold and the “increased selectivity by addition of a single methyl group” value is about 1000 fold.

As to `O=S1(=O)OCCO1` [ethylene sulfate, Ethylene sulfate], the “yield of SAM analog” value on ath_V140A is listed as “over 20%”; in the data set with TPMT CAK it was “over 20%”; in the data set with TPMT kal (1 mM SAH, 1 mM ethylene sulfate added every half an hour, after 3-hour incubation), 60%. In addition, in the data set with TPMT kal (ethylene sulfate as donor, after 4-hour incubation, new HPLC peak not identified as the desired product), the “SAH converted to SAM analog” value came out at 37%. Also, in the data set “physchem”, the half-life stood at 0.183 h.

Turning to `COS(C)(=O)=O` [MMSa, methyl methanesulfonate], the half-life is 34 ± 1 h in data set [2] (buffer) and 28 ± 4 h in data set [2].

As for `COS(=O)(=O)c1ccc([N+](=O)[O-])cc1` [MeONs, methyl 4-nitrobenzenesulfonate], in data set [2] (buffer), the half-life is 3 ± 0.1 h.

In the case of `COS(=O)(=O)OC` [DMSa, dimethyl sulfate], the rate was under 0.01 min⁻¹ in the data set with nba; under 0.01 min⁻¹ with dba; over 3 turnover min^-1 in the data set on dsq; under 0.01 min⁻¹ in the data set with mac; under 0.01 min⁻¹ with bra; under 0.01 min⁻¹ with msm. The rate with acl was over 3 turnover min^-1; at bma, under 0.01 min⁻¹. The “SAH converted to SAM” value in the data set on BxHMT was 60 - 70%. Besides, the half-life was 0.97 ± 0.05 h in data set [2] (buffer) and 0.95 ± 0.07 h in data set [2]. Also, the “acceptance of DMSa as substrate” value at AtHMT was “not a direct substrate”.
